In PMC7466750, “Crystal structures of human ENPP1 in apo and bound forms” (Acta Crystallographica. Section D, Structural Biology, 2020):

Columns and labels:
hENPP1 [1] = molecular target: T1, hENPP1 (Homo sapiens, UniProt P22413); assay: Differential scanning fluorimetry (DSF) thermal shift of hENPP1; type: binding; details: for ΔT m: DSF
T1 sequence (P22413 98-925): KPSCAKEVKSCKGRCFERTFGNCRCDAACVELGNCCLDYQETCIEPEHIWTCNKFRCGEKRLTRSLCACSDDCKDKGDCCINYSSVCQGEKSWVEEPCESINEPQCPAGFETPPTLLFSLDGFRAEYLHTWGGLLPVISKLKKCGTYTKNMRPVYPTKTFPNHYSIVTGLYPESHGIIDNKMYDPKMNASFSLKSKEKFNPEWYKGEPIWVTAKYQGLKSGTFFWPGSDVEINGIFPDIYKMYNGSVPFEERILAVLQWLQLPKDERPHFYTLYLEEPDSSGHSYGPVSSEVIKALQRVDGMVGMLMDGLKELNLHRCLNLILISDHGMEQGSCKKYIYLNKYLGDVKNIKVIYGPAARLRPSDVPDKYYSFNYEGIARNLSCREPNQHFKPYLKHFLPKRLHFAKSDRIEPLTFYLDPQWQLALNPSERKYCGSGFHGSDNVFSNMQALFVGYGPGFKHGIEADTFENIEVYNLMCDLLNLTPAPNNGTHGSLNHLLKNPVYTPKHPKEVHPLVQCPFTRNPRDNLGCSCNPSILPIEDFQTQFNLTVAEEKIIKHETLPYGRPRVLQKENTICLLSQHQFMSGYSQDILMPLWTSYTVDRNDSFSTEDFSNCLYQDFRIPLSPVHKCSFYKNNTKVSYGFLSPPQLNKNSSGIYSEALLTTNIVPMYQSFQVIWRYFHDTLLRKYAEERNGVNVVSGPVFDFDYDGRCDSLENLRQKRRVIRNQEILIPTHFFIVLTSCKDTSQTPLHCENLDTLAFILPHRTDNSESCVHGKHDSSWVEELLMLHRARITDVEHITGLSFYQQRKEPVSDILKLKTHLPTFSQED
Protocol: DSF experiments were performed using a Bio-Rad CFX96 thermocycler, with the fluorescence intensity measured with excitation and emission at 490 and 570 nm, respectively. Plates were heated from 20 to 100°C at a heating rate of 1.0°C min^−1. Protein was present at a final concentration of 15 µg ml^−1. The well volume was 20 µl. The buffer was 50 mM Tris–HCl pH 7.4, 150 mM NaCl, 50 µM ZnCl2. […] Ligands and controls were present in triplicate.

hENPP1 [2] = molecular target: T1, hENPP1; assay: Surface plasmon resonance (SPR) binding to immobilised hENPP1 98–925, 1:1 steady-state affinity model; set-up: hENPP1^98–925 was coupled to the chip surface at 25°C; made in house; host or cells: 293-F cells (human), with 5 µM kifunensine
Protocol: The protein was diluted to 25 µg ml^−1 at pH 6.0 [10 mM 2-(N-morpholino)ethanesulfonic acid (MES), 0.005%(v/v) Tween 20] and injected to an immobilization level of 8–10 kRU. The surface was then blocked with 1 M ethanolamine pH 8.0 for 7 min. SPR experiments were performed at 25°C in SPR running buffer consisting of 50 mM Tris pH 7.4, 150 mM NaCl, 50 µM ZnCl2, 0.005%(v/v) Tween 20, 2%(v/v) DMSO. When performing dose–response testing, analytes were serially diluted (twofold or threefold), injected for 30–90 s contact time and allowed to dissociate back to baseline. The flow rate was 60 µl min^−1. Binding sensorgrams were processed, solvent-corrected and double-referenced using the Scrubber software (BioLogic Software, Australia). Responses at equilibrium for each analyte were fitted to a 1:1 steady-state affinity model that was available within Scrubber.

[3] = Determined by SPR, triplicates ± SD, 25°C, pH 7.4

SMILES	ΔT m (hENPP1 [1]; tested at 10 µM)	Kd (hENPP1 [2]; [3]) [nM]	Kd (hENPP1 [2]; SPR) [nM]	ΔT m (hENPP1 [1]; compounds at 100 µM)	Tm (hENPP1 [1]; DSF melting curve, Supplementary Fig. S6)
Nc1nc2c(ncn2[C@@H]2O[C@@H]3COP(=O)(O)O[C@H]4[C@@H](O)[C@H](n5cnc6c(N)ncnc65)O[C@@H]4COP(=O)(O)O[C@H]3[C@H]2O)c(=O)[nH]1 [3′3′-cGAMP]	+1.2	1300 ± 300	1300		
Nc1ncnc2c1ncn2[C@@H]1O[C@H](COP(=O)(O)OP(=O)(O)O)[C@@H](O)[C@H]1O [ADP]		56 ± 3		+3.3	
Nc1ncnc2c1ncn2[C@@H]1O[C@H](COP(=O)(O)O)[C@@H](O)[C@H]1O [AMP]		103 ± 8		+2.7	
Nc1ccn([C@@H]2O[C@H](COP(=O)(O)O)[C@@H](O)[C@H]2O)c(=O)n1 [CMP]		1500 ± 300	> 1000	+2.1	
COc1ccc2c(Oc3ccc(NS(N)(=O)=O)cc3)ccnc2c1 [Ex54]		100 ± 20			
Nc1nc(=O)c2ncn([C@@H]3O[C@H](COP(=O)(O)O)[C@@H](O)[C@H]3O)c2[nH]1 [GMP]		470 ± 60		+1.0	60.34 (+/-0.03)
COc1cc2ncnc(N3CCC(CNS(N)(=O)=O)CC3)c2cc1OC [QPS2]		55 ± 6		+4.5	
Cc1cn([C@H]2C[C@H](O)[C@@H](COP(=O)(O)O)O2)c(=O)[nH]c1=O [TMP]		1800 ± 300	> 1000	+1.2	
O=c1ccn([C@@H]2O[C@H](COP(=O)(O)O)[C@@H](O)[C@H]2O)c(=O)[nH]1 [UMP]		1100 ± 300	> 1000	+1.8	
